Laboratory results published in patent US8461118B2, “Lytic peptides having anti-proliferative activity against prostate cancer cells” (Tuskegee University, priority 2011, dated 2013).
Values joined by “and” are separate entries in the source; they are usually repeats but may differ in a detail not shown here. Equal entries are not always repeated. “Also recorded” adds a separate entry of the source. Ends that are not written are not given here.

Experiments:
PC-3 cells [1] = type: cell-based, human; details: for IC50: MTT, 72 h exposure
Text: To evaluate the efficacy of these peptides in inhibiting prostate cancer, a prostate cancer progression model was followed that utilized several different cell lines in various experiments as described herein to form this model, including the known cell lines DU-145, PC-3, LNCaP, and hPrEC. […] This cell line has both LHRH-R and epidermal growth factor receptors (“EGFR”), and produces the EGFR ligands, transforming growth factor α (TGF-α) and EGF. The androgen-unresponsive PC-3 cell line is derived from a human bone metastasis of a grade IV prostatic adenocarcinoma, while the androgen-responsive LNCaP cell line is derived from a human lymph node metastasis. For all experiments described herein, normal primary human prostate epithelial cells (“hPrEC”) were obtained from Clonetics (Lonza Inc., Walkersville, Md.), while the other cell lines were purchased from ATCC and maintained in T-media (Gibco Invitrogen, CA) supplemented with 10% fetal bovine serum (FBS) (Gibco Invitrogen, CA) and 1% penicillin/streptomycin (Cellgro Mediatech, Inc., VA).
In the various experiments described below, unless otherwise noted, the cytotoxicity of the various peptides when measured was evaluated using the methylthiazol tetrazolium (“MTT”) assay (Sigma Aldrich, MO), which determines the number of viable cells from the formazan crystals produced by metabolic activity. The cells in such cytotoxicity experiments were plated in 96-well plates at 2.5×10^3 cells/well, and were allowed to reattach overnight. They were then exposed to the test lytic peptides (1-20 μM) for 72 h. The MTT reagent [3-(4,5-dimethylthiazol-2-yl)-2,5-diphenyltetrazolium bromide], 50 μL) in T-media was added to each well, and the plates were incubated for 2 h. The supernatant media was aspirated, and formazan crystals were dissolved with […] dimethylsulfoxide per well at 37° C. for 10 min. The quantity of solublized formazan per well was determined by a Spectromax plate reader at 540 nm (Molecular Devices, CA). Each assay was performed at least three times with six replicates per data point.
For all experiments, unless otherwise noted, statistics were performed with Microsoft Excel. Independent Student's t-test was utilized to determine statistical differences between experimental subjects and control subjects. The IC50 values were derived through regression analysis of the continuous data by cubic spline interpolation utilizing Aabel™ (Gigawiz Ltd. Co., OK), a software application that integrates statistics (inferential and multivariate) with graphical representation.
To determine the effectiveness of JCH and JC21 with or without mLHRH conjugates, androgen-independent, highly metastatic PC-3 cells were exposed to the peptides in increasing concentrations (0-20 μM).
For this experiment, IC50 values were determined by interpolation of three individual experiments performed in quadruplicate at 50% cell death. All values were reported in the table of FIG. 2A were determined to be significant compared to control p<0.001. In the table, “n.d.” serves as an abbreviation for “not determined,” as tests were not conducted for JHC and JC21 against LNCaP and DU-145.

[2] = tested on: normal primary hPrEC cells; test: MTT cytotoxicity on normal primary prostate epithelial cells; type: cell-based, human; details: 0-20 μM
Text: (§1) To evaluate the efficacy of these peptides in inhibiting prostate cancer, a prostate cancer progression model was followed that utilized several different cell lines in various experiments as described herein to form this model, including the known cell lines DU-145, PC-3, LNCaP, and hPrEC. […] This cell line has both LHRH-R and epidermal growth factor receptors (“EGFR”), and produces the EGFR ligands, transforming growth factor α (TGF-α) and EGF. The androgen-unresponsive PC-3 cell line is derived from a human bone metastasis of a grade IV prostatic adenocarcinoma, while the androgen-responsive LNCaP cell line is derived from a human lymph node metastasis. […]
(§2) In the various experiments described below, unless otherwise noted, the cytotoxicity of the various peptides when measured was evaluated using the methylthiazol tetrazolium (“MTT”) assay (Sigma Aldrich, MO), which determines the number of viable cells from the formazan crystals produced by metabolic activity. […] The quantity of solublized formazan per well was determined by a Spectromax plate reader at 540 nm (Molecular Devices, CA). […]

[3] = tested on: PC-3 cells treated with siRNA-LHRH-R; test: Peptide sensitivity of PC-3 cells after siRNA-LHRH-R knockdown (trypan blue exclusion); type: cell-based, human; details: 100 nM siRNA-LHRH-R
Protocol: To more firmly establish the significance of the mLHRH sequence on peptide activity, PC-3 cells were treated with siRNA-LHRH at 50 nM and 100 nM concentrations and assayed LHRH levels by immunofluorescence. In this Experiment, PC-3 cells were treated with siRNA-LHRH-R at 50 nM and 100 nM, and compared to control. For this experiment, a total of about 2×10^5 cells, equaling approximately 60-70% confluency, were plated in six-well plates. The LHRH-R siRNA (Santa Cruz, Calif.) was diluted in […] of Opti-MEM (Invitrogen, CA). A […] aliquot of Lipofectamine 2000 (Invitrogen, CA) was diluted in […] of Opti-MEM and incubated for 5 min at room temperature. The diluted siRNA and Lipofectamine 2000 were mixed according to manufacturer's directions and incubated for 20 min at room temperature. The resulting complexes were added to each well and incubated for 24 h. […]
LHRH-R expression was determined by immuno-fluorescence staining with 4′,6-diamidino-2-phenylindole (“DAPI”) utilizing anti-LHRH-R antibody (Lab Vision, CA) and Alexa 488 secondary antibody (Invitrogen, CA).
For purposes of comparison, PC-3 cells were treated with JC21 mLHRH or JCHmLHRH in the presence or absence of 100 nM siRNA-LHRH-R or siRNA-scramble treated cells. Cell viability was determined by trypan blue exclusion, and the results are depicted in the graph of FIG. 3C.

PC-3 cells [4] = test: Real-time imaging, trypan blue exclusion and Annexin V in PC-3 cells; type: cell-based, human
Protocol: In the various experiments described below, unless otherwise noted, real-time imaging of cell cultures was performed utilizing an Olympus DSU (Disk Scanning Units) Confocal microscope (Olympus America Inc., PA). The subject cells were maintained in 5% CO2 at 37° C. in an incubation chamber (Pathology Devices, Inc., MD). Images were taken every 15 min and processed utilizing MetaMorph Imaging Software (Molecular Devices, CA).
Although the mechanism associated with the anti-tumor activity of lytic peptides has not been defined, without wishing to be limited to any mechanism of action, it is believed that direct interaction of the present lytic peptides with the cell membrane causes the electrochemical potential to collapse, resulting in cell death. To investigate the potential mechanism of action, a qualitative approach utilizing real-time imaging was employed in conjunction with monitoring of a classic marker of apoptosis, Annexin V. Since the mechanism of death was unknown, real-time imaging was employed for cells in a 5% CO2 and temperature-regulated (37° C.) chamber to monitor the effects of JC21mLHRH and JCHmLHRH on PC-3 cellular responses.
PC-3 cell cultures were exposed to JCHmLHRH (5 μM) or JC21mLHRH (8 μM) and imaged continuously for 24 h with time-lapse microscopy. FIG. 5A comprises eight black and white photographs depicting real-time images of PC-3 cells after treatment with lytic peptides JCHmLHRH (5 μM) or JC21mLHRH (8 μM) taken with time-lapse microscopy under 5% CO2 and 37° C. at 0, 3, 6, and 12 hours post administration. […] There were different modes of action by which JCHmLHRH and JC21mLHRH caused cell death.
FIG. 5B is a graph reporting experimental results for cell percentage corresponding to the images of FIG. 5A. Quantification of total cell number and cell viability was determined by trypan blue exclusion after exposure to JCHmLHRH (5 μM) or JC21mLHRH (8 μM) over a 24 h period. The results shown in the graph of FIG. 5B are representative of three individual experiments performed in triplicate (where the horizontal line at approximately 60% in the graph indicates significance at p<0.0001). The data indicates a rapid mode of action was observed by both the real-time imaging and trypan blue staining mechanisms, with nearly 80% cell death after only 6 h of treatment and approximately 100% cell death after the 24 h period.

RFP-PC-3 cells = test: Co-culture differential fluorescence, RFP-PC-3 cells; type: cell-based, human; details: JCHmLHRH 5 μM or JC21mLHRH 8 μM, 12 hr
Protocol: In the various experiments described below, unless otherwise noted, co-cultures were prepared and utilized as described by Yates et al. (see Yates C, Shepard C R, Papworth G, Dash A, Beer Stolz D, Tannenbaum S, et al., Novel three-dimensional organotypic liver bioreactor to directly visualize early events in metastatic progression, Adv Cancer Res, 2007; 97:225-46; and Yates C, Shepard C R, Stolz D B, Wells A., Co-culturing human prostate carcinoma cells with hepatocytes leads to increased expression of E-cadherin, Br J Cancer 2007; 96:1246-52), with certain modifications as noted herein. The co-cultures consisted of 50,000 cells/cm^2 of GFP-HS-27a bone marrow stromal cells and 2000 cells/cm^2 of red fluorescent protein PC-3 prostate cancer cells (“RFP-PC-3”), and were maintained in Dulbecco's modified Eagle medium, and cell death was monitored in real-time (as described above) by differential fluorescence. To determine relative intensity, the total intensity area of each image as well as the threshold intensity for each channel was measured utilizing Metamorph Imaging Software (Molecular Devices, Inc., CA), and the significance between the two intensities was then analyzed statistically. All quantitative data was normalized to each control image. […]

[5] = tested on: GFP-HS-27a bone marrow stromal cells; test: Co-culture differential fluorescence, GFP-HS-27a bone marrow stromal cells; type: cell-based; details: for relative intensity of GFP-HS-27a cells: JCHmLHRH 5 μM or JC21mLHRH 8 μM, 12 hr
Protocol: In the various experiments described below, unless otherwise noted, co-cultures were prepared and utilized as described by Yates et al. (see Yates C, Shepard C R, Papworth G, Dash A, Beer Stolz D, Tannenbaum S, et al., Novel three-dimensional organotypic liver bioreactor to directly visualize early events in metastatic progression, Adv Cancer Res, 2007; 97:225-46; and Yates C, Shepard C R, Stolz D B, Wells A., Co-culturing human prostate carcinoma cells with hepatocytes leads to increased expression of E-cadherin, Br J Cancer 2007; 96:1246-52), with certain modifications as noted herein. The co-cultures consisted of 50,000 cells/cm^2 of GFP-HS-27a bone marrow stromal cells and 2000 cells/cm^2 of red fluorescent protein PC-3 prostate cancer cells (“RFP-PC-3”), and were maintained in Dulbecco's modified Eagle medium, and cell death was monitored in real-time (as described above) by differential fluorescence. To determine relative intensity, the total intensity area of each image as well as the threshold intensity for each channel was measured utilizing Metamorph Imaging Software (Molecular Devices, Inc., CA), and the significance between the two intensities was then analyzed statistically. All quantitative data was normalized to each control image.
For this experiment, RFP-PC-3 cell cultures, GFP-HS-27a cell cultures, and RFP-PC-3/GFP-HS-27a cell co-cultures were exposed to JCHmLHRH (5 μM) and JC21mLHRH (8 μM), and the various cultures were monitored by differential immunofluorescence over 12 h period. Images comprising black and white photographs of the cultures at the 0 hr, 6 hr, and 12 hr marks following administration of JCHmLHRH and JC21mLHRH are shown in FIG. 5C and FIG. 5D, respectively. Two trials of this experiment were conducted with similar results, and the photographs of FIG. 5C and FIG. 5D are illustrative of the results of both trials. […] Further, the RFP-PC-3/GFP-HS-27a co-culture images at the 6 hr and 12 hr marks largely resemble the corresponding time images for GFP-HS-27a cultures in relative intensity.
FIG. 5E in turn provides a chart showing the relative intensity of total areas measured under differential fluorescence of the co-culture cells after they were exposed to JCHmLHRH and JC21mLHRH in this experiment.

PC-3 cells [6] = test: PC-3 growth recovery after 24 h peptide pretreatment; type: cell-based, human; details: 24 h pretreatment JCHmLHRH 5 μM or JC21mLHRH 8 μM, 3 days
Protocol: This experiment was performed to determine whether cancerous cells could recover after JCHmLHRH or JC21mLHRH exposure. PC-3 cell cultures were exposed to JCHmLHRH (5 μM) or JC21mLHRH (8 μM) for 24 hours. Growth was measured over a 3-day period. Growth of pre-treatment and post-treatment groups were compared over time.

LNCaP cells = test: MTT cytotoxicity assay, LNCaP prostate cancer cells; type: cell-based, human; details: 72 h exposure
Text: as §1, §2

DU-145 cells = test: MTT cytotoxicity assay, DU-145 prostate cancer cells; type: cell-based, human; details: 72 h exposure
Text: as §1, §2

Substance: AFKKAFKKAKKAFKKAFKAFAFA [JC21]
- IC50 (PC-3 cells [1]): 9.25 µM

Substance: FALALKALKKALKKLKKALKKAL [JCH]
- IC50 (PC-3 cells [1]): 6.67 µM

Substance: QHWSWGLRPGAFKKAFKKAKKAFKKAFKAFAFA [JC21mLHRH]
- effect on hPrEC cell proliferation / toxicity [2]: neither JCHmLHRH nor JC21mLHRH causes appreciable decreases in hPrEC cell proliferation; also recorded: nontoxic
- decrease in sensitivity to peptide on depletion of LHRH levels [3]: 50%
- morphological changes in cells (PC-3 cells [4]; PC-3 cells, 3 h exposure, real-time imaging): morphological changes
- cell death (PC-3 cells [4]; PC-3 cells, JCHmLHRH 5 μM or JC21mLHRH 8 μM, 6 h of treatment): ~80%
- cell death (PC-3 cells [4]; PC-3 cells, JCHmLHRH 5 μM or JC21mLHRH 8 μM, after the 24 h period): approximately 100%
- mode of cell death observed under microscope (PC-3 cells [4]; PC-3 cells, JCHmLHRH 5 μM or JC21mLHRH 8 μM, time-lapse microscopy): condensing of the cellular and nuclear membrane without bursting
- expression of apoptotic marker Annexin V (PC-3 cells [4]; exposed PC-3 cells): did not observe expression of apoptotic marker Annexin V
- relative intensity of RFP-PC-3 cells (RFP-PC-3 cells): approaches zero
- toxicity to bone marrow stromal cells in co-culture [5]: nontoxic
- relative intensity of GFP-HS-27a cells [5]: only decreases slightly
- cell growth after pretreatment (PC-3 cells [6]): completely inhibited cell growth

Substance: QHWSWGLRPGFALALKALKKALKKLKKALKKAL [JCHmLHRH]
- IC50 (PC-3 cells [1]): 4.22 µM and 4.4 µM
- IC50 (LNCaP cells): 4.36 µM and 4.4 µM
- IC50 (DU-145 cells): 4.81 µM and 4.8 µM
- effect on hPrEC cell proliferation / toxicity [2]: neither JCHmLHRH nor JC21mLHRH causes appreciable decreases in hPrEC cell proliferation; also recorded: nontoxic
- toxicity to bone marrow stromal cells in co-culture [5]: nontoxic
- relative intensity of GFP-HS-27a cells [5]: only decreases slightly

Substance: mLHRH: modified LHRH binding sequence, tryptophan in place of tyrosine, QHWSWGLRPG (ends and bridges not checked; listed as Homo sapiens)
- cell death at higher concentrations (PC-3 cells [1]; mLHRH sequence alone): failed to cause 50% cell death
- concentration causing a decrease in cell proliferation of PC-3 cells (as low as) (PC-3 cells [1]; mLHRH sequence alone): 1 µM
